What all share (assay type): cell-based
The test system of assay [1] is Mycosphaerella graminicola (Septoria tritici). Nature of the assay: Mycosphaerella graminicola (Septoria tritici) / liquid culture (Septoria blotch). Particulars: Zymoseptoria tritici, growth inhibition photometrically 4-5 days after application, read-out: control of Mycosphaerella graminicola. As for the experimental part: Example B16: Mycosphaerella graminicola (Septoria tritici)/Liquid Culture (Septoria Blotch) Conidia of the fungus from cryogenic storage are directly mixed into nutrient broth (PDB potato dextrose broth). After placing a (DMSO) solution of test compound into a microtiter plate (96-well format), the nutrient broth containing the fungal spores is added. The test plates are incubated at 24° C. and the inhibition of growth is determined photometrically 4-5 days after application.

Assay [2] concerns Botryotinia fuckeliana (Botrytis cinerea). Nature of the assay: Botryotinia fuckeliana (Botrytis cinerea) / liquid culture (gray mould). Particulars: growth inhibition photometrically 3-4 days after application, read-out: control of Botryotinia fuckeliana. As for the experimental part: Example B2: Botryotinia fuckeliana (Botrytis cinerea)/Liquid Culture (Gray Mould) Conidia of the fungus from cryogenic storage are directly mixed into nutrient broth (Vogels broth). After placing a (DMSO) solution of test compound into a microtiter plate (96-well format), the nutrient broth containing the fungal spores is added. The test plates are incubated at 24° C. and the inhibition of growth is determined photometrically 3-4 days after application.

Assay [3] relates to Monographella nivalis (Microdochium nivale). The experiment in a line: Monographella nivalis (Microdochium nivale) / liquid culture (foot rot cereals). Particulars: growth inhibition photometrically 4-5 days after application, read-out: control of Monographella nivalis. As to the method: Example B9: Monographella nivalis (Microdochium nivale)/Liquid Culture (Foot Rot Cereals) Conidia of the fungus from cryogenic storage are directly mixed into nutrient broth (PDB potato dextrose broth). After placing a (DMSO) solution of test compound into a microtiter plate (96-well format), the nutrient broth containing the fungal spores is added. The test plates are incubated at 24° C. and the inhibition of growth is determined photometrically 4-5 days after application.

Assay [4] has as its system Glomerella lagenarium (Colletotrichum lagenarium). Nature of the assay: Glomerella lagenarium (Colletotrichum lagenarium) / liquid culture (anthracnose). Particulars: Colletotrichum orbiculare, growth inhibition photometrically 3-4 days after application, read-out: control of Glomerella lagenarium. As for the experimental part: Example B3: Glomerella lagenarium (Colletotrichum lagenarium)/Liquid Culture (Anthracnose) Conidia of the fungus from cryogenic storage are directly mixed into nutrient broth (PDB potato dextrose broth). After placing a (DMSO) solution of test compound into a microtiter plate (96-well format), the nutrient broth containing the fungal spores is added. The test plates are incubated at 24° C. and the inhibition of growth is measured photometrically 3-4 days after application.

For the compound `Cn1cc(C(C)(CNC(=O)c2cc(-c3ccc(F)cc3F)on2)c2cc(Br)ccn2)cn1` (centres unmarked) [Compound P-66, N-[2-(4-bromo-2-pyridyl)-2-(1-methylpyrazol-4-yl)propyl]-5-(2,4-difluorophenyl) isoxazole-3-carboxamide], the inhibition of growth at 20 ppm in assay [1] was ≥ 80%. As for `Cc1cc(C(=O)NCC(C)(c2cnn(C)c2)c2cccc(Cl)n2)no1` (centres unmarked) [Compound P-77, N-[2-(6-chloro-2-pyridyl)-2-(1-methylpyrazol-4-yl)propyl]-5-methyl-isoxazole-3-carboxamide], the inhibition of growth at 20 ppm in assay [1] was ≥ 80%. As for `COc1ncc(-c2cccc(C(C)(CNC(=O)c3cc(-c4ccc(F)cc4F)on3)c3cnn(C)c3)n2)c(OC)n1` (centres unmarked) [Compound P-88, 5-(2,4-difluorophenyl)-N-[2-[6-(2,4-dimethoxypyrimidin-5-yl)-2-pyridyl]-2-(1-methylpyrazol-4-yl)propyl]isoxazole-3-carboxamide], the inhibition of growth at 20 ppm in assay [2], in assay [3] and in assay [1] was ≥ 80% throughout.

With `Cc1cncc(-c2cccc(C(C)(CNC(=O)c3cc(-c4ccc(F)cc4F)on3)c3cnn(C)c3)n2)c1` (centres unmarked) [Compound P-91, 5-(2,4-difluorophenyl)-N-[2-(1-methylpyrazol-4-yl)-2-[6-(5-methyl-3-pyridyl)-2-pyridyl]propyl] isoxazole-3-carboxamide], the inhibition of growth at 20 ppm in assay [3] and in assay [1] was ≥ 80% each time.

As to `CC(=O)c1ccc(C(C)(CNC(=O)c2cc(-c3ccc(F)cc3F)on2)c2cnn(C)c2)nc1` (centres unmarked) [Compound P-57, N-[2-(5-acetyl-2-pyridyl)-2-(1-methylpyrazol-4-yl)propyl]-5-(2,4-difluorophenyl) isoxazole-3-carboxamide], the inhibition of growth at 20 ppm in assay [4], in assay [3] and in assay [1] was ≥ 80% each time. Regarding `Cn1cc(C(C)(CNC(=O)c2cc(-c3ccc(F)cc3F)on2)c2ccc(N)cn2)cn1` (centres unmarked) [Compound P-58, N-[2-(5-amino-2-pyridyl)-2-(1-methylpyrazol-4-yl)propyl]-5-(2,4-difluorophenyl) isoxazole-3-carboxamide], the inhibition of growth at 20 ppm in assay [3] was ≥ 80%. With `Cc1ncc(-c2cccc(C(C)(CNC(=O)c3cc(-c4ccc(F)cc4F)on3)c3cnn(C)c3)n2)cc1F` (centres unmarked) [Compound P-97, 5-(2,4-difluorophenyl)-N-[2-[6-(5-fluoro-6-methyl-3-pyridyl)-2-pyridyl]-2-(1-methylpyrazol-4-yl)propyl]isoxazole-3-carboxamide], the inhibition of growth at 20 ppm in assay [1] was ≥ 80%. On to `Cc1cc(-c2cccc(C(C)(CNC(=O)c3cc(-c4ccc(F)cc4F)on3)c3cnn(C)c3)n2)ccn1` (centres unmarked) [Compound P-89, 5-(2,4-difluorophenyl)-N-[2-(1-methylpyrazol-4-yl)-2-[6-(2-methyl-4-pyridyl)-2-pyridyl]propyl] isoxazole-3-carboxamide], for which the inhibition of growth at 20 ppm in assay [3] and in assay [1] was ≥ 80% in each case.

Turning to `Cn1cc(C(C)(CNC(=O)c2cc(-c3ccc(F)cc3F)on2)c2cccc(C3(C#N)CC3)n2)cn1` (centres unmarked) [Compound P-104, N-[2-[6-(1-cyanocyclopropyl)-2-pyridyl]-2-(1-methylpyrazol-4-yl)propyl]-5-(2,4-difluorophenyl) isoxazole-3-carboxamide], the inhibition of growth at 20 ppm in assay [3] and in assay [1] was ≥ 80% in each case. For `Cn1cc(C(C)(CNC(=O)c2cc(-c3ccc(F)cc3F)on2)c2cccc(-c3ccnn3C)n2)cn1` (centres unmarked) [Compound P-95, 5-(2,4-difluorophenyl)-N-[2-(1-methylpyrazol-4-yl)-2-[6-(2-methylpyrazol-3-yl)-2-pyridyl]propyl] isoxazole-3-carboxamide], the inhibition of growth at 20 ppm in assay [3] and in assay [1] was ≥ 80% each time. With `Cn1cc(C(C)(CNC(=O)c2cc(-c3ccc(F)cc3F)on2)c2cc(C#N)cc(Cl)n2)cn1` (centres unmarked) [Compound P-41, N-[2-(6-chloro-4-cyano-2-pyridyl)-2-(1-methylpyrazol-4-yl)propyl]-5-(2,4-difluorophenyl) isoxazole-3-carboxamide], the inhibition of growth at 20 ppm in assay [2] and in assay [1] was ≥ 80% in each case. With `COc1ccc(C(C)=O)nc1C(C)(CNC(=O)c1cc(-c2ccc(F)cc2F)on1)c1cnn(C)c1` (centres unmarked) [Compound P-112], in assay [1], the inhibition of growth at 20 ppm is ≥ 80%.

In the case of `COc1cc(C#N)nc(C(C)(CNC(=O)c2cc(-c3ccc(F)cc3F)on2)c2cnn(C)c2)c1` (centres unmarked) [Compound P-67, N-[2-(6-cyano-4-methoxy-2-pyridyl)-2-(1-methylpyrazol-4-yl)propyl]-5-(2,4-difluorophenyl) isoxazole-3-carboxamide], the inhibition of growth at 20 ppm in assay [3] and in assay [1] was ≥ 80% in each case. For the compound `Cn1cc(C(C)(CNC(=O)c2cc(-c3ccc(F)cc3F)on2)c2cc(O)cc(Cl)n2)cn1` (centres unmarked) [Compound P-38, N-[2-(6-chloro-4-hydroxy-2-pyridyl)-2-(1-methylpyrazol-4-yl)propyl]-5-(2,4-difluorophenyl) isoxazole-3-carboxamide], the inhibition of growth at 20 ppm in assay [2] and in assay [1] was ≥ 80% throughout. With `Cn1cc(C(C)(CNC(=O)c2cc(-c3ccc(F)cc3F)on2)c2ccc(Br)cn2)cn1` (centres unmarked) [Compound P-33, N-[2-(5-bromo-2-pyridyl)-2-(1-methylpyrazol-4-yl)propyl]-5-(2,4-difluorophenyl) isoxazole-3-carboxamide], the inhibition of growth at 20 ppm in assay [4], in assay [3] and in assay [1] was ≥ 80% throughout.

For the compound `Cc1c(-c2cccc(C(C)(CNC(=O)c3cc(-c4ccc(F)cc4F)on3)c3cnn(C)c3)n2)ccnc1F` (centres unmarked) [Compound P-98, 5-(2,4-difluorophenyl)-N-[2-[6-(2-fluoro-3-methyl-4-pyridyl)-2-pyridyl]-2-(1-methylpyrazol-4-yl)propyl]isoxazole-3-carboxamide], the inhibition of growth at 20 ppm in assay [1] was ≥ 80%. `Cc1noc(C)c1-c1cccc(C(C)(CNC(=O)c2cc(-c3ccc(F)cc3F)on2)c2cnn(C)c2)n1` (centres unmarked) [Compound P-94, 5-(2,4-difluorophenyl)-N-[2-[6-(3,5-dimethylisoxazol-4-yl)-2-pyridyl]-2-(1-methylpyrazol-4-yl)propyl]isoxazole-3-carboxamide]: the inhibition of growth at 20 ppm in assay [3] and in assay [1] was ≥ 80% in each case. For the compound `COc1ccc(C(C)(CNC(=O)c2cc(-c3ccc(F)cc3F)on2)c2cnn(C)c2)nc1Br` (centres unmarked) [Compound P-109, N-[2-(6-bromo-5-methoxy-2-pyridyl)-2-(1-methylpyrazol-4-yl)propyl]-5-(2,4-difluorophenyl) isoxazole-3-carboxamide], the inhibition of growth at 20 ppm in assay [1] was ≥ 80%. Regarding `COc1cccc(C(C)(CNC(=O)c2cc(-c3ccc(F)cc3OC)on2)c2cnn(C)c2)n1` (centres unmarked) [Compound P-99, 5-(4-fluoro-2-methoxy-phenyl)-N-[2-(6-methoxy-2-pyridyl)-2-(1-methylpyrazol-4-yl)propyl]isoxazole-3-carboxamide], in assay [1], the inhibition of growth at 20 ppm was ≥ 80%. With `Cn1cc(C(CNC(=O)c2cc(-c3ccc(F)cc3F)on2)c2cccc(Cl)n2)cn1` (centres unmarked) [Compound P-13, N-[2-(6-chloro-2-pyridyl)-2-(1-methylpyrazol-4-yl)ethyl]-5-(2,4-difluorophenyl)isoxazole-3-carboxamide], the inhibition of growth at 20 ppm in assay [2], in assay [3] and in assay [1] was ≥ 80% throughout. For the compound `Cn1cc(C(C)(CNC(=O)c2nnc(-c3ccc(F)cc3F)s2)c2ncccc2Cl)cn1` (centres unmarked) [Compound P-1, N-[2-(3-chloro-2-pyridyl)-2-(1-methylpyrazol-4-yl)propyl]-5-(2,4-difluorophenyl)-1,3,4-thiadiazole-2-carboxamide], the inhibition of growth at 20 ppm in assay [2], in assay [3] and in assay [1] was ≥ 80% throughout. Regarding `COc1cc(Cl)nc([C@](C)(CNC(=O)c2cc(-c3ccc(F)cc3F)no2)c2cnn(C)c2)c1` [Compound P-47, N-[(2S)-2-(6-chloro-4-methoxy-2-pyridyl)-2-(1-methylpyrazol-4-yl)propyl]-3-(2,4-difluorophenyl) isoxazole-5-carboxamide], the inhibition of growth at 20 ppm in assay [2], in assay [3] and in assay [1] was ≥ 80% throughout.

Take `Cn1cc(C(C)(CNC(=O)c2cc(-c3ccc(F)cc3F)on2)c2cc(Cl)ccn2)cn1` (centres unmarked) [Compound P-18, N-[2-(4-chloro-2-pyridyl)-2-(1-methylpyrazol-4-yl)propyl]-5-(2,4-difluorophenyl) isoxazole-3-carboxamide]: the inhibition of growth at 20 ppm in assay [3] and in assay [1] was ≥ 80% each time.

Source of the values: US20240343717A1, “MICROBIOCIDAL PYRAZOLE DERIVATIVES” (SYNGENTA CROP PROTECTION AG, priority 2021, published 2024).
